Laboratory results reported in patent US5185377A, “Diphenyl compounds which inhibit arachidonic acid metabolism, and their use in pharmaceutical compositions” (Ciba-Geigy Corporation, priority 1990, dated 1993).
Where two headings read alike, the source gives them in different places.

Columns and labels:
15-lipoxygenase = molecular target: T1, 15-lipoxygenase (Oryctolagus cuniculus, UniProt P12530); assay: Inhibition of the activity of 15-lipoxygenase from rabbit reticulocytes; type: biochemical
T1 construct: The lipoxygenase from rabbit reticulocytes is obtained in an electrophoretically and immunologically pure form; from tissue; host or cells: rabbit reticulocytes
T1 sequence (P12530 1-663): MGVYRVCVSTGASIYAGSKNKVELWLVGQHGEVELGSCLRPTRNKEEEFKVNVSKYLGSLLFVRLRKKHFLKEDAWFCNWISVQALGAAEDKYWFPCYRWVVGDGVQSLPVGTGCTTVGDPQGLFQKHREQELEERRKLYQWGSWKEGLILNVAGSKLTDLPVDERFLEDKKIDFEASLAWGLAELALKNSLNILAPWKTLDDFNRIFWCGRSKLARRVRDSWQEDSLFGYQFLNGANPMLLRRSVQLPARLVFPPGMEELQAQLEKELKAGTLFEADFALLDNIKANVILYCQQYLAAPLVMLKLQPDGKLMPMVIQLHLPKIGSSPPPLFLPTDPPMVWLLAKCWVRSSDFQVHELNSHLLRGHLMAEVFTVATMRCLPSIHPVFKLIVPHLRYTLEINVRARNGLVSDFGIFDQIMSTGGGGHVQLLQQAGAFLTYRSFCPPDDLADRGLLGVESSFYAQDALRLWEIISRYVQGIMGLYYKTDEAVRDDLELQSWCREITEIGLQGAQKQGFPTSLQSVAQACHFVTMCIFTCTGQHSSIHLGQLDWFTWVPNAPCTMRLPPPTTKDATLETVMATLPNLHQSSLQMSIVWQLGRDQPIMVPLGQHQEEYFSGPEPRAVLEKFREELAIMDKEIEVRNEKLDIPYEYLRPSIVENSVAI
Method: The lipoxygenase from rabbit reticulocytes is obtained in an electrophoretically and immunologically pure form by the method described in the literature [S. M. Rapoport et al., Eur. J. Biochem. 96, 545 (1979]. The lipoxygenase activity is determined at 25° C. via amperometric measurement of the O2 consumption by means of a Clark electrode in the following system: 0.1 M potassium phosphate pH 7.4 containing 0.2% of sodium cholate and 0.53 mM linoleic acid. The enzyme concentration in the measurement bath is 25 nM. The substances to be tested are added as a solution in methylglycol (freshly distilled). […] The enzyme reaction is started by addition of sodium cholate and linoleic acid. The titration curve of the inhibition and from this the concentration needed for 50% inhibition are determined by varying the active ingredient concentration.

prostaglandin H synthase = molecular target: T2, prostaglandin H synthase (Ovis aries, UniProt P05979); assay: Inhibition of the activity of prostaglandin H synthase from sheep seminal vesicles; type: biochemical
T2 construct: H synthase from sheep seminal vesicles is obtained by the method described in the literature; from tissue; host or cells: sheep seminal vesicles
T2 sequence (P05979 25-600): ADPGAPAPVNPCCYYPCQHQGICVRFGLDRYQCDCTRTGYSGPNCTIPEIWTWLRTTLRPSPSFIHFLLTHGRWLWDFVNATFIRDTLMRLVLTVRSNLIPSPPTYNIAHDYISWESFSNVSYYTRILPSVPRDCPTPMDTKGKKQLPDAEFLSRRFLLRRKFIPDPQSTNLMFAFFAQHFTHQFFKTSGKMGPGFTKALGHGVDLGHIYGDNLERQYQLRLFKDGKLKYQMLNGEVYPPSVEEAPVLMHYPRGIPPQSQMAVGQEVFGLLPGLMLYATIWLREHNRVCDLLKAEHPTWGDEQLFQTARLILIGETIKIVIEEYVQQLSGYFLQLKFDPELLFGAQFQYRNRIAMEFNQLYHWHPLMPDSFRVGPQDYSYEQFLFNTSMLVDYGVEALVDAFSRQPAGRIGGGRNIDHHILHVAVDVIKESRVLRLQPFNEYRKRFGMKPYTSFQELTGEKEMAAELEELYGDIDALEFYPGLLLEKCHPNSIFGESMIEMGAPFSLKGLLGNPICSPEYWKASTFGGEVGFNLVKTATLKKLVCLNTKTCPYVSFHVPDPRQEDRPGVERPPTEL
Method: Prostaglanding H synthase from sheep seminal vesicles is obtained by the method described in the literature by Van der Oudaraa, F. J. G.; Buytenhek, M.; Methods Enzymol. 86, 60 (1982).
The enzyme activity is determined at 25° C. by polargraphic measurement of the oxygen consumption with a Clark electrode.
The measurement batch consists of […] ml^-1 of prostaglandin H synthase in 0.1 M Tris-HCl buffer pH=8.0, 5 mM tryptophan, 1 μM haemin and 0.124 mM arachidonic acid. The substances to be tested are dissolved in methylglycol and incubated with the enzyme in the absence of arachidonic acid for 10 minutes at 25° C. The enzyme reaction is started with arachidonic acid.
The titration curve of the inhibition and from this the concentration needed for 50% inhibition are determined by varying the active ingredient concentration.

[1] = test system: isolated lung parenchyma strips; assay: Arachidonic acid-induced contraction of isolated lung parenchyma strips; type: cell-based, guinea-pig; settings: for inhibition at 50 µM: 5×10^-5 M
Method: (§1) Testing of antiasthmatic active qualities of triclosan and fenticlor in vitro is carried out on isolated tracheal spirals and lung parenchyma strips of adult guinea-pigs (250-500 g) of both sexes. The tracheal spirals are prepared by the method described by Constantine [J. W. Constantine et al., J. Pharm. Pharmacol. 17, 384 (1965)]. Particular emphasis is placed on complete removal of the surrounding connective tissue and on maintaining the integrity of the epithelium [N. A. Flavahan et al., J. Appl. Physiol. 58, 834 (1985)].
(§2) The lung parenchyma strip is prepared in accordance with the method described by Del Monte [L. Del Monte et a., Naunym-Schmiedebergs Arch. Pharmacol., 338, 417 (1988)]. The contraction of the isolated organs is determined as isotonic measurement of the path under standardised conditions [J. Slapke et al., Biomed. Biochim. Acta 42, 1309 (1983)] in a multiple organ bath.
(§3) A modified Krebs-Henseleit solution (pH=7.4) of the following composition is used for the studies (m×mol 1^-1): NaCl 134.8, KCl 5.9, Tris 10.02, CaCl2 1.82, MgCl2 1.145, glucose 1.11. Air is used for gassing. The bath temperature is 37° C. for the lung parenchyma strips and 35° C. for the tracheal spirals. Conditioning of the preparations is performed several times with 5×10^-4 M acetylcholine to obtain the standardisation value, this substance subsequently being flushed out. In all studies, the contractions are induced by addition of arachidonic acid to the organ bath in increasing concentrations and are measured cumulatively. All the measurements are made in the present of 5 μM indomethacin.

[2] = test system: isolated tracheal spirals; assay: Arachidonic acid-induced contraction of isolated tracheal spirals; type: cell-based, guinea-pig; settings: Cavia porcellus, average, 35° C., 5 μM indomethacin present, read-out: ED50 (concentration-related contraction)
Method: as §1, §2
as §3, with “Conditioning of the preparations is performed several times with 5×10^-4 M acetylcholine to obtain the standardisation value, this substance subsequently being flushed out.” left out, “All the measurements are made in the present of 5 μM indomethacin.” left out

[3] = literature statement; G. B. Kasting et al. cited for the non-steroidal drugs; cited from earlier work
[4] = test system: arachidonic acid-induced bronchoconstriction; assay: Arachidonic acid-induced bronchoconstriction in the guinea-pig; type: in vivo
Method: A bronchospasm is induced in non-sensitised guinea-pigs in the same experimental design as in Example 2 by intratracheal instillation of 2 mg/kg of Na arachidonate solution in phosphate buffer pH=7.4 [G. Becher et al., Z. Erkrankg. Atm.-org. 171, 85 (1988)].

[5] = test system: ovalbumin-induced bronchoconstriction; assay: Ovalbumin-induced bronchoconstriction in the ovalbumin-sensitised guinea-pig; type: in vivo
Method: Guinea-pigs are sensitised i.p. with 10 μg of ovalbumin and 100 mg of aluminium hydroxide in 0.5 ml of isotonic saline solution by the method of Anderson [P. Anderson, Brit. J. Pharmacol. 77, 301 (1982)]. After 14 days, the conscious animals are given a booster by inhalation of a 0.1% strength atomised ovalbumin solution. Only animals with a positive reaction are used for comparison from the fourth day after the booster. Guinea-pigs with a body weight of 450-550 g are were anaesthetised with 1.3 g/kg of ethylurethane i.p. Thereafter, a cannula is connected to the trachea. The animals are relaxed with 0.2 mg/kg pancuronium bromide i.v. and respirated in a tank respirator (f=20/min, p.=3 pPa, I:E=1:1). The animals breath in air from the room by the tracheal cannula led to the outside. The tidal volume VT is measured pneumota- chographically. 1 mg/kg of ovalbumin in 300 μl of water is instilled intratracheally to induce the spasm [G. Becher et al., Z. Erkrankg., Arm.-org. 166, 223 (1986)].
Statistical analysis of the results is carried out with the parameter-free U-test according to Mann and Whitney, p.≤0.05.

[6] = Cavia porcellus, 5 μM indomethacin
[7] = 100 mg/kg p.o. 2 hours before, Na arachidonate 2 mg/kg intratracheally
[8] = 100 mg/kg p.o. 2 hours before, ovalbumin 1 mg/kg intratracheally

Structure (SMILES)	IC50 (15-lipoxygenase) [µM]	IC50 (prostaglandin H synthase) [µM]	also measured
Oc1c(Cl)cc(Cl)c(O)c1Cc1c(O)c(Cl)cc(Cl)c1O [2,2'6,6'-Tetrahydroxy-3,3',5,5'-tetrachloro-diphenylmethane]	3.6	17	–
Oc1c(Cl)cc(Cl)c(Cl)c1Cc1c(O)c(Cl)cc(Cl)c1Cl [2,2'-Dihydroxy-3,3',5,5',6,6'-hexachloro-diphenylmethane]	3.5	17	–
Oc1c(Br)cc(Br)cc1Cc1cc(Br)cc(Br)c1O [2,2'-Dihydroxy-3,3',5,5'-tetrabromo-diphenylmethane]	2.8	45	–
Oc1c(Cl)cc(Cl)cc1Cc1cc(Cl)cc(Cl)c1O [2,2'-Dihydroxy-3,3',5,5'-tetrachloro-diphenylmethane]	–	–	IC50 (15-lipoxygenase; 25° C., pH 7.4, 0.53 mM linoleic acid, enzyme 25 nM, read-out: 15-LOX IC50): 9.5 µM; IC50 (prostaglandin H synthase; 25° C., pH=8.0, 0.124 mM arachidonic acid, 10 minutes preincubation, read-out: PG H synthase IC50): 60 µM
Oc1c(Cl)cc(Br)cc1Cc1cc(Br)cc(Cl)c1O [2,2'-Dihydroxy-3,3'-dichloro-5,5'-dibromo-diphenylmethane]	3.8	28	–
Cc1cc(Cc2ccccc2)cc(Cl)c1O [2-Chloro-6-methyl-4-benzylphenol]	28	35	–
Oc1c(Br)cc(Cc2cc(Br)c(O)c(Br)c2)cc1Br [4,4'-Dihydroxy-3,3',5,5'-tetrabromo-diphenylmethane]	5	17	–
Oc1c(Cl)cc(Cc2cc(Cl)c(O)c(Br)c2)cc1Br [4,4'-Dihydroxy-3,3'-dibromo-5,5'-dichloro-diphenylmethane]	10.5	180	–
Cc1cc(Cl)cc(Cc2ccccc2)c1O [4-Chloro-2-methyl-6-benzylphenol]	2.5	30	–
CCCCC/C=C\C/C=C\C/C=C\C/C=C\CCCC(=O)O [Arachidonic acid, arachidonic acid]	–	–	EC50 ([1]; Cavia porcellus, read-out: ED50 (concentration-related contraction)): 100 µM; EC50 [2]: 50 µM
NC1=NN(c2cccc(C(F)(F)F)c2)CC1 [BW 755 C]	–	–	inhibition at 50 µM [1, 6]: 50%
Oc1ccc(Cl)cc1Cc1ccccc1 [chlorophene, 2-Benzyl-4-chlorophenol]	2	40	–
O=C(O)Cc1ccccc1Nc1c(Cl)cccc1Cl [diclofenac]	–	–	skin penetration [3]: inadequate skin penetration
Oc1ccc(Cl)cc1Sc1cc(Cl)ccc1O [fenticlor, 2,2'-dihydroxy-5,5'-dichloro-diphenyl sulfide]	1.4	15.5	IC50 ([1]; Cavia porcellus, read-out: ID50): 5 µM; inhibition of the maximum bronchospasm [4, 7]: 16.5%; time to return to the starting volume (tidal volume) [4, 7]: 25 min; inhibition of the arachidonic acid-induced bronchoconstrictive reaction ([4]; fenticlor 100 mg/kg p.o. 2 hours before, U-test p≤0.05): inhibited significantly (parameter-free U-test according to Mann and Whitney, p≤0.05) from the fifth minute; inhibition of the maximum bronchospasm [5, 8]: 60%; time to return to the starting volume (tidal volume) [5, 8]: 25 min; reduction of the allergic reaction (bronchoconstriction) ([5]; fenticlor 100 mg/kg p.o. 2 hours before, in comparison with controls, p≤0.05): reduced significantly
COc1ccc2c(c1)c(CC(=O)O)c(C)n2C(=O)c1ccc(Cl)cc1 [indomethacin]	–	–	skin penetration [3]: inadequate skin penetration
CC(C(=O)O)c1cccc(C(=O)c2ccccc2)c1 (centres unmarked) [ketoprofen]	–	–	skin penetration [3]: inadequate skin penetration
CN1CCC(=C2c3ccccc3CC(=O)c3sccc32)CC1 [ketotifen]	–	–	inhibition at 1 µM ([1]; Cavia porcellus, 10^-6 M, 5 μM indomethacin): 25%
CC(Cc1ccc(O)c(O)c1)C(C)Cc1ccc(O)c(O)c1 (centres unmarked) [nordihydroguarjiaretic acid]	–	–	inhibition at 50 µM [1, 6]: 50%
Oc1cc(Cl)ccc1Oc1ccc(Cl)cc1Cl [triclosan, 2,4,4'-trichloro-2'-hydroxy-diphenyl ether]	2.4	23	inhibition of the arachidonic acid-induced contraction ([1]; 10^-6 M triclosan, arachidonic acid 10^-7 -10^3 M (so in the source), 5 μM indomethacin): complete inhibition; relaxation on isolated lung parenchyma strips ([1]; triclosan concentrations of >10^-6 M): pronounced dose-related relaxation
